According to ChEMBL document CHEMBL1158420, “Synthesis, spectral, crystal and antimicrobial studies of biologically potent oxime ethers of nitrogen, oxygen and sulfur heterocycles” (2009):
In brackets after ≈: the same amount, converted by molar mass.

Key:
Escherichia coli [1] = test: Antibacterial activity against Escherichia coli by twofold dilution method; format: functional
Aspergillus niger [2] = test: Antifungal activity against Aspergillus niger by twofold dilution method; format: functional
Pseudomonas aeruginosa [3] = test: Ratio of MIC for drug to MIC for Ciprofloxacin against Pseudomonas aeruginosa; format: functional
Escherichia coli [4] = test: Ratio of MIC for drug to MIC for Ciprofloxacin against Escherichia coli; format: functional
Candida = test: Antifungal activity against Candida 51 by twofold dilution method; format: functional
[5] = test system: Salmonella enterica subsp. enterica; test: Ratio of MIC for drug to MIC for Ciprofloxacin against Salmonella typhi; format: functional, Salmonella enterica subsp. enterica serovar Typhi
Aspergillus flavus [6] = test: Antifungal activity against Aspergillus flavus by twofold dilution method; format: functional
[7] = test system: Salmonella enterica subsp. enterica; test: Antibacterial activity against Salmonella typhi by twofold dilution method; format: functional, Salmonella enterica subsp. enterica serovar Typhi
Candida albicans [8] = test: Antifungal activity against Candida albicans by twofold dilution method; format: functional
Pseudomonas aeruginosa [9] = test: Antibacterial activity against Pseudomonas aeruginosa by twofold dilution method; format: functional
Staphylococcus aureus [10] = test: Antibacterial activity against Staphylococcus aureus by twofold dilution method; format: functional
Cryptococcus neoformans [11] = test: Antifungal activity against Cryptococcus neoformans by twofold dilution method; format: functional
Staphylococcus aureus [12] = test: Ratio of MIC for drug to MIC for Ciprofloxacin against Staphylococcus aureus; format: functional
Rhizopus [13] = test: Antifungal activity against Rhizopus sp. by twofold dilution method; format: functional
Rhizopus [14] = test: Ratio of MIC for drug to MIC for Amphotericin B against Rhizopus sp.; format: functional
Candida albicans [15] = test: Ratio of MIC for drug to MIC for Amphotericin B against Candida albicans; format: functional
Aspergillus flavus [16] = test: Ratio of MIC for drug to MIC for Amphotericin B against Aspergillus flavus; format: functional
Cryptococcus neoformans [17] = test: Ratio of MIC for drug to MIC for Amphotericin B against Cryptococcus neoformans; format: functional
Aspergillus niger [18] = test: Ratio of MIC for drug to MIC for Amphotericin B against Aspergillus niger; format: functional
[19] = Escherichia coli, read-out: MIC
[20] = Aspergillus niger, read-out: MIC
[21] = Aspergillus flavus, read-out: MIC
[22] = Salmonella enterica, read-out: MIC
[23] = Candida albicans, read-out: MIC
[24] = Pseudomonas aeruginosa, read-out: MIC
[25] = Staphylococcus aureus, read-out: MIC
[26] = Cryptococcus neoformans, read-out: MIC

SMILES	MIC (Escherichia coli [1]; [19]) [µg/mL]	MIC (Aspergillus niger [2]; [20]) [µg/mL]	MIC (Candida; Candida, 51, read-out: MIC) [µg/mL]	Ratio [5]	MIC (Aspergillus flavus [6]; [21]) [µg/mL]	MIC [7, 22] [µg/mL]	MIC (Candida albicans [8]; [23]) [µg/mL]	MIC (Pseudomonas aeruginosa [9]; [24]) [µg/mL]	MIC (Staphylococcus aureus [10]; [25]) [µg/mL]	MIC (Cryptococcus neoformans [11]; [26]) [µg/mL]	Ratio (Staphylococcus aureus [12])	MIC (Rhizopus [13]; Rhizopus, read-out: MIC) [µg/mL]	MIC (Pseudomonas aeruginosa [9]) [µg/mL]	MIC (Candida) [µg/mL]	MIC (Candida albicans [8]) [µg/mL]	also measured
CC1C(=NOCc2ccccc2)C(C)C(c2ccc(Cl)cc2)NC1c1ccc(Cl)cc1 (stereo not given)	12.5 (≈ 27.6 µM)	25 (≈ 55.1 µM)	25 (≈ 55.1 µM)	2	25 (≈ 55.1 µM)	25 (≈ 55.1 µM)	25 (≈ 55.1 µM)	6.25 (≈ 13.8 µM)	6.25 (≈ 13.8 µM)	25 (≈ 55.1 µM)	2	50 (≈ 110 µM)				Ratio (Pseudomonas aeruginosa [3]): 4; Ratio (Escherichia coli [4]): 2
Cc1ccc([C@@H]2C/C(=N/OCc3ccccc3)C[C@H](c3ccc(C)cc3)S2)cc1	50 (≈ 125 µM)	50 (≈ 125 µM)	100 (≈ 249 µM)	2	100 (≈ 249 µM)	25 (≈ 62.3 µM)	100 (≈ 249 µM)	25 (≈ 62.3 µM)	12.5 (≈ 31.1 µM)	200 (≈ 498 µM)	2	50 (≈ 125 µM)				
Cc1ccc(C2NC(c3ccc(C)cc3)C(C)C(=NOCc3ccccc3)C2C)cc1 (stereo not given)	12.5 (≈ 30.3 µM)	50 (≈ 121 µM)	6.25 (≈ 15.1 µM)		25 (≈ 60.6 µM)	50 (≈ 121 µM)	50 (≈ 121 µM)	25 (≈ 60.6 µM)	6.25 (≈ 15.1 µM)	50 (≈ 121 µM)		12.5 (≈ 30.3 µM)				Ratio (Pseudomonas aeruginosa [3]): 4; Ratio (Escherichia coli [4]): 4; Ratio (Rhizopus [14]): 2; Ratio (Candida albicans [15]): 2; Ratio (Aspergillus flavus [16]): 2; Ratio (Cryptococcus neoformans [17]): 2; Ratio (Aspergillus niger [18]): 2
CC1C(=NOCc2ccccc2)C(C)C(c2ccccc2)NC1c1ccccc1 (stereo in doubt; 5f1)	50 (≈ 130 µM)	100 (≈ 260 µM)	50 (≈ 130 µM)		200 (≈ 520 µM)	100 (≈ 260 µM)	50 (≈ 130 µM)		200 (≈ 520 µM)	100 (≈ 260 µM)		100 (≈ 260 µM)	50 (≈ 130 µM)			
CC1C(=NOCc2ccccc2)C(C)C(c2ccccc2)NC1c1ccccc1 (stereo in doubt; 5f2)													200 (≈ 520 µM)	100 (≈ 260 µM)	100 (≈ 260 µM)	MIC (Escherichia coli [1]): 100 µg/mL (≈ 260 µM); MIC (Aspergillus niger [2]): 100 µg/mL (≈ 260 µM); MIC (Aspergillus flavus [6]): >200 µg/mL; MIC [7]: 100 µg/mL (≈ 260 µM); MIC (Staphylococcus aureus [10]): 100 µg/mL (≈ 260 µM); MIC (Cryptococcus neoformans [11]): 200 µg/mL (≈ 520 µM); MIC (Rhizopus [13]): 50 µg/mL (≈ 130 µM)
CC1C(=NOCc2ccccc2)C(C)C(c2ccc(Cl)cc2)OC1c1ccc(Cl)cc1 (stereo in doubt; 7c1)	50 (≈ 110 µM)	100 (≈ 220 µM)	50 (≈ 110 µM)		50 (≈ 110 µM)	50 (≈ 110 µM)		25 (≈ 55 µM)	50 (≈ 110 µM)	25 (≈ 55 µM)		50 (≈ 110 µM)			50 (≈ 110 µM)	
CC1C(=NOCc2ccccc2)C(C)C(c2ccc(Cl)cc2)OC1c1ccc(Cl)cc1 (stereo in doubt; 7c2)													50 (≈ 110 µM)	25 (≈ 55 µM)	12.5 (≈ 27.5 µM)	MIC (Escherichia coli [1]): 50 µg/mL (≈ 110 µM); MIC (Aspergillus niger [2]): 50 µg/mL (≈ 110 µM); MIC (Aspergillus flavus [6]): 25 µg/mL (≈ 55 µM); MIC [7]: 100 µg/mL (≈ 220 µM); MIC (Staphylococcus aureus [10]): 50 µg/mL (≈ 110 µM); MIC (Cryptococcus neoformans [11]): 12.5 µg/mL (≈ 27.5 µM); MIC (Rhizopus [13]): 25 µg/mL (≈ 55 µM)
Cc1ccc(C2OC(c3ccc(C)cc3)C(C)C(=NOCc3ccccc3)C2C)cc1 (stereo in doubt; 7d1)	25 (≈ 60.5 µM)	50 (≈ 121 µM)		2	50 (≈ 121 µM)	25 (≈ 60.5 µM)		12.5 (≈ 30.2 µM)	12.5 (≈ 30.2 µM)	50 (≈ 121 µM)	2	50 (≈ 121 µM)		50 (≈ 121 µM)	25 (≈ 60.5 µM)	
